Test results published in US5081152A, “Azulene derivatives as thromboxane A2 and prostaglandin endoperoxide receptor antagonist” (Kotobuki Seiyaku Co., Ltd., priority 1989, dated 1992).
pIC50: −log10 of the molar value. Where a name gives a salt, the structure may show the parent alone.

target: T1, Thromboxane A2 receptor (Rattus norvegicus, UniProt P34978); experiment: Thromboxane A2 receptor antagonistic action (inhibitory action of U-46619-induced contractions of rat aortic strips); format: cell-based; settings: isolated helical strips of rat aorta precontracted with 3×10^-8 M U-46619; read-out: IC50 (the concentrations which inhibited the contraction by 50%)
T1 sequence (P34978 1-341): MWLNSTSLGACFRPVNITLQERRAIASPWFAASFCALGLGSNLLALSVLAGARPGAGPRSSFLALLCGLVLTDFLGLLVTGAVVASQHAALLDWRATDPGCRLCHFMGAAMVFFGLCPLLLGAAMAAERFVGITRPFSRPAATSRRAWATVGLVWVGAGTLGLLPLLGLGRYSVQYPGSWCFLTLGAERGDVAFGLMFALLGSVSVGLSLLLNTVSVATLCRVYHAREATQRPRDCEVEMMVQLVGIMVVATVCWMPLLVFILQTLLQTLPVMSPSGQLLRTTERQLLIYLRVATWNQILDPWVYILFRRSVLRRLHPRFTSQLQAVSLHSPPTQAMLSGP

How did the pIC50 turn out when `CC(C)c1ccc2c(C/C=C\CNS(=O)(=O)c3ccccc3)cc(C(=O)O)c-2cc1` [Compound 68, 6-isopropyl-3-[4-(benzenesulfonylamino)-cis-2-butenyl]-azulene-1-carboxylic acid] was run?
Its pIC50 is 7.28.

With `CC(C)c1ccc2c(C/C=C/CNS(=O)(=O)c3ccccc3)cc(C(=O)O)c-2cc1` [Compound 69, 6-isopropyl-3-[4-(benzenesulfonylamino)-trans-2-butenyl]-azulene-1-carboxylic acid] as the compound, how does the pIC50 read?
Its pIC50 is 6.34.

With `CC(C)c1ccc2c(CCCCNS(=O)(=O)c3ccccc3)cc(S(=O)(=O)O)c-2cc1` [sodium salt] as the compound, how does the pIC50 read?
The pIC50 was 7.77.
